Data taken from ChEMBL document CHEMBL1629692, “Susceptibility of gram-negative pathogens isolated from patients with complicated intra-abdominal infections in the United States, 2007-2008: results of the Study for Monitoring Antimicrobial Resistance Trends (SMART)” (2010).

Tests used:
Type in all cases: functional
[1] = tested on: Citrobacter freundii; test: Antimicrobial activity against Citrobacter freundii obtained from patient with complicated intra-abdominal infection assessed as percent susceptible isolates by agar dilution method in presence of beta-lactamase inhibitor Sulbactam
[2] = tested on: Klebsiella aerogenes; test: Antimicrobial activity against Enterobacter aerogenes obtained from patient with complicated intra-abdominal infection assessed as percent susceptible isolates by agar dilution method in presence of beta-lactamase inhibitor Sulbactam
[3] = tested on: Enterobacter cloacae; test: Antimicrobial activity against Enterobacter cloacae obtained from patient with complicated intra-abdominal infection assessed as percent susceptible isolates by agar dilution method in presence of beta-lactamase inhibitor Sulbactam
[4] = tested on: Escherichia coli; test: Antimicrobial activity against Escherichia coli obtained from patient with complicated intra-abdominal infection assessed as percent susceptible isolates by agar dilution method in presence of beta-lactamase inhibitor Sulbactam
[5] = tested on: Escherichia coli; test: Antimicrobial activity against extended-spectrum beta-lactamase-positive Escherichia coli obtained from patient with complicated intra-abdominal infection assessed as percent susceptible isolates by agar dilution method in presence of beta-lactamase inhibitor Sulbactam
[6] = tested on: Escherichia coli; test: Antimicrobial activity against extended-Spectrum beta-lactamase-negative Escherichia coli obtained from patient with complicated intra-abdominal infection assessed as percent susceptible isolates by agar dilution method in presence of beta-lactamase inhibitor Sulbactam
[7] = tested on: Klebsiella pneumoniae; test: Antimicrobial activity against Klebsiella pneumoniae assessed as percent susceptible isolates by agar dilution method in presence of beta-lactamase inhibitor Sulbactam
[8] = tested on: Klebsiella pneumoniae; test: Antimicrobial activity against extended-spectrum beta-lactamase-positive Klebsiella pneumoniae assessed as percent susceptible isolates by agar dilution method in presence of beta-lactamase inhibitor Sulbactam
[9] = tested on: Klebsiella pneumoniae; test: Antimicrobial activity against extended-spectrum beta-lactamase-negative Klebsiella pneumoniae assessed as percent susceptible isolates by agar dilution method in presence of beta-lactamase inhibitor Sulbactam
[10] = tested on: Klebsiella oxytoca; test: Antimicrobial activity against extended-spectrum beta-lactamase-positive Klebsiella oxytoca assessed as percent susceptible isolates by agar dilution method in presence of beta-lactamase inhibitor Sulbactam
[11] = tested on: Proteus mirabilis; test: Antimicrobial activity against extended-spectrum beta-lactamase-positive Proteus mirabilis assessed as percent susceptible isolates by agar dilution method in presence of beta-lactamase inhibitor Sulbactam
[12] = tested on: Serratia marcescens; test: Antimicrobial activity against Serratia marcescens assessed as percent susceptible isolates by agar dilution method in presence of beta-lactamase inhibitor Sulbactam
[13] = tested on: Pasteurella sp.; test: Antimicrobial activity against Pasteurella sp. assessed as percent susceptible isolates by agar dilution method in presence of beta-lactamase inhibitor Sulbactam
[14] = tested on: Pseudomonas fluorescens; test: Antimicrobial activity against Pseudomonas fluorescens assessed as percent susceptible isolates by agar dilution method in presence of beta-lactamase inhibitor Sulbactam
[15] = tested on: Stenotrophomonas maltophilia; test: Antimicrobial activity against Stenotrophomonas maltophilia assessed as percent susceptible isolates by agar dilution method in presence of beta-lactamase inhibitor Sulbactam
[16] = tested on: Acinetobacter sp.; test: Antimicrobial activity against Acinetobacter sp. assessed as percent susceptible isolates by agar dilution method in presence of beta-lactamase inhibitor Sulbactam

Which Activity [1] does the source give for `CC1(C)S[C@@H]2[C@H](NC(=O)[C@H](N)c3ccccc3)C(=O)N2[C@H]1C(=O)O` [AMPICILLIN] here?
The Activity was 61%.

What about the Activity [2] of the same molecule?
Its Activity is 21%.

What about the Activity [3] of the same molecule?
The Activity was 17%.

What about the Activity [4] of the same molecule?
The Activity was 62%.

And the Activity [5]?
Its Activity is 24%.

What about the Activity [6] of the same molecule?
The Activity was 64%.

What about the Activity [7] of the same molecule?
The Activity was 69%.

And the Activity [8]?
Its Activity is 3%.

What about the Activity [9] of the same molecule?
The Activity was 83%.

What about the Activity [10] of the same molecule?
The Activity was 57%.

What about the Activity [11] of the same molecule?
Its Activity is 97%.

What about the Activity [12] of the same molecule?
The Activity was 13%.

What about the Activity [13] of the same molecule?
The Activity was 46%.

What about the Activity [14] of the same molecule?
Its Activity is 46%.

And the Activity [15]?
Its Activity is 46%.

What about the Activity [16] of the same molecule?
The Activity was 46%.
